Experimental data as given in patent publication US20240316008A1, “TREATMENT OF SYSTEMIC IMMUNE ACTIVATION SYNDROMES” (TRANQUIS THERAPEUTICS, INC., priority 2020, published 2024).

What was measured:
TNFα = TNFα release by LPS-stimulated BV2 cells (ELISA); assay type: cell-based, murine; settings: BV-2 cells, 10 μM, ELISA at 24 hours
Experimental: First, 100 μl of supernatant was removed from Cell Plate and transferred to a Dilution Plate, which was then centrifuged at 216×g for 10 minutes to remove particulates. The dilution plate was either assayed immediately or aliquots were taken and stored at stored at ≤−20° C.; repeated freeze-thaw cycles were avoided.
Next, a standard curve was prepared by first pipetting 900 ul of Calibrator Diluent RD5K into the 700 pg/mL tube, followed by 200 μl of the appropriate calibrator diluent in the remaining tubes. The stock solution was used to produce a dilution. The resulting tubes were then thoroughly mixed. The Mouse TNFα Standard (700 pg/mL) served as the high standard, and the Calibrator Diluent RD5T served as the zero standard at 0 pg/ml.
Assay Diluent RD1-63 (50 ul) was then added to the center of each well and mixed before and during its use. Then, 50 ul of either standard, control, or sample was added to the center of each well, and covered with adhesive strip. The plate was then mixed for 1 minute and incubated for 2 hours at room temperature.
Each well was then aspirated and washed by filling each well with Wash Buffer (400 ul) five times. After the last wash, the remaining Wash Buffer was removed by aspirating or decanting. TNFα […] conjugate (100 ul) was then added to each well, covered with adhesive strip, incubated for 2 hours at room temperature, and washed and/or aspirated five times.
Substrate solution (100 ul) was then added to each well, incubated in the dark for 30 minutes at room temperature, followed by addition of 100 μl of Stop Solution and mixed. The optical density of each well was determined within 30 minutes by using a microplate reader set to 450 nm.
Plates were read on a Spectrostar Nano machine with built-in MARS data analysis at […].
For TNFα ELISA, the BV-2 cells were very responsive to low concentrations of LPS. A concentration range of 0.1 ng/ml to 1,000 ng/ml was tested. 0.3 ng/ml LPS produced enough TNFα release (8-10 fold above background) from these cells after 22 hours stimulation without saturating the linear range of the ELISA detection system. If higher LPS concentrations are used for stimulating BV-2 cells, a […] is advised to stay within the linear range of the detection system. The current TNFα protocol uses 10,000 cells per well in 96 well plate. A cell count titration can optimize S/B ratio. Miniaturization from 96 well to 384 well is also feasible with this assay.
The TNFα ELISA assay is described in Example 5. The IL-6 assay is described below.

Ppargc1α mRNA = Ppargc1α mRNA expression in BV2 cells (rt-PCR); assay type: cell-based, murine; settings: concentrations ranging from 0.7 μM to 20 μM, normalized to beta-actin mRNA
Description: RNA was processed for real-time PCR.

[1] = test system: 12 human primary cell-based systems; experiment: Eurofins BioMAP Diversity PLUS panel
Description: TQS-168 was characterized in the Eurofins BioMAP Diversity PLUS panel of 12 human primary cell-based systems (FIG. 12). These systems are designed to model complex human tissue and disease biology of the vasculature, skin (fibrosis), pulmonary and immune systems and provide test agent characterization in an unbiased way across a broad set of systems modeling various human disease states. Quantitative measurements of biomarker activities across this broad panel, along with comparative analysis of the biological activities of known bioactive agents in the BioMAP reference database were used to predict the safety, efficacy and function of TQS-168. A BioMAP profile in the Diversity PLUS Panel was performed for TQS-168 at concentrations of 20 μM, 6.7 μM, 2.2 μM, and 740 nM. The Y-axis represents a log-transformed ratio of the biomarker readouts for the test agent-treated sample (n=1) over vehicle controls (average of ≥6 vehicle controls from the same plate). The grey region around the Y-axis represents the 95% significance envelope that was generated from the upper and lower bound values of historical vehicle controls. Biomarker activities were annotated when two or more consecutive concentrations change in the same direction relative to vehicle controls, were outside of the significance envelope, and have at least one concentration with an effect size >20% (|log10 ratio|>0.1). Biomarker key activities were described as modulated if these activities increase in some systems, but decreased in others.

IL-6 [2] = experiment: Spontaneous IL-6 release of PBMCs from an ALS patient (ELISA); assay type: cell-based, human; settings: 1 μM, 24 hours, no LPS, versus medium only
Experimental: PBMCs from an ALS patient were used for this study. Whole blood samples were collected from the patient and processed for PBMC isolation with Ficoll gradient method. PBMC samples were stored in liquid nitrogen at […] for subsequent analysis of IL-6 production.
Frozen PBMC samples were thawed and rested at 37° C. […] Therefore PBMC stimulation by LPS was not required to evaluate the effects of TQS-168 and metabolite TQS-621 on IL-6 production. PBMC samples (5×10^5 cells per well) were incubated with medium only, TQS-168 (1 μM) or TQS-621 (1 μM). After 24 hours, supernatants were collected for quantification of IL-6 levels by ELISA.

IL-6 [3] = experiment: IL-6 secretion from LPS-stimulated BV2 cells (CBA assay); assay type: cell-based, murine; settings: 100 ng/ml LPS, 1 μM-20 μM, 24 hours
Experimental: LPS was used to induce cytokine secretion from BV-2 cells. Cells were incubated with TQS-168 at various concentrations to assess whether TQS-168 could suppress the LPS-promoted release of various cytokines from in vitro cell cultures. Cytokine secretion was measured by cytometric bead array (CBA) fluorescence-activated cell sorting (FACS). Briefly, a vial of BV2 frozen stock (1 million cells per ml in complete medium) was thawed into 10 mL of complete medium per vial for a total of 4 vials. The vials were then centrifuged at 1800 rpm for 3 minutes to wash away freezing media. The four vials were then pooled into 25 mL of complete medium. TQS-168 was prepared in DMSO. Cells were incubated for 24 hours in the presence of medium (negative control), LPS (positive control), DMSO+LPS (positive control, controlling additionally for presence of DMSO in the TQS-168 stock solution), or LPS+TQS-168 at final concentrations of 1 μM, 5 μM, 10 μM, and 20 μM. After the well plates were incubated overnight for 24 hours, they were centrifuged at 1800 rpm for 5 minutes. Next, 150 μl from each well was transferred to a new set of plates, of which 50 μl was used for CBA. The plates were then centrifuged with the cells, followed by addition of 100 μl of DAPI (50 ml of PBS+10 μl of DAPI stock at 1:5000 dilution). […]

[4] = profile at 20 μM, 6.7 μM, 2.2 μM, 740 nM

In the case of `CC(C)(C)c1ccc(-c2nc3ccccc3[nH]2)cc1` [TQS-168, 2-(4-tert-butylphenyl)-1H-benzimidazole], the “suppression of TNFα production” value (TNFα; 0.3 ng/ml LPS) is reported as “about 25%”, the inhibition at 10 µM (TNFα; Mus musculus, 1 ng/ml LPS, read-out: inhibition of TNFα production) is reported as ~35% and the “Ppargc1α mRNA expression” value (Ppargc1α mRNA) is reported as “induces”. The “T-cell proliferation, IgG, TNFα, and IL-8” value ([1]; 6.7 μM) was “inhibit”, the “decrease in sIgG and sTNFα in B and T cells as compared to metformin hydrochloride at 5000 μM” value ([1]; 6.7 μM) was “greater decrease” and the “decrease in sIgG, sIL-17A, sIL-17F, sIL-2, sTNFα, sIL-6 from B and T cells” value ([1]; 20 μM, highest concentration of the profile) was “greatest decrease”. For the same molecule, the “inflammatory markers Eotaxin-3, P-selectin, IL-8, PGE2, IP-10” value [1, 4] was “decreased”, the “proliferation of endothelial, B cells, T cells, coronary artery SMC & fibroblasts” value [1, 4] was “anti-proliferative” and the “tissue remodeling markers uPAR, MMP1, tPA, alpha-SMA, Collagen III” value [1, 4] was “modulated”. For the same molecule, the “spontaneous release of IL-6 (amount of IL-6 produced)” value (IL-6 [2]) was “reduction” and the “LPS-induced secretion of IL-6” value (IL-6 [3]) was “reduce”.
